Assay results: patent US20260263554A1, “COMPOSITION COMPRISING CPNE7 PROTEIN OR CPNE7 PROTEIN-DERIVED PEPTIDE FOR REMOVING REACTIVE OXYGEN SPECIES IN CELLS” (HYSENSBIO CO., LTD, priority 2022, published 2026)

Assays:
[1] = tested on: Human dental pulp cells (hDPCs); assay: Optical microscope observation of hDPCs after H2O2 and test substance; assay type: cell-based; conditions: 24 hours
Experimental: Human dental pulp cells (hDPCs) were cultured in an α-MEM medium containing 10% FBS under 37° C. and 5% CO2 conditions.
hDPCs were seeded into 35 mm culture dishes at a density of 1×10^5 cells, cultured for 24 hours, treated with H2O2 at a concentration of 5 uM, 100 uM, 1 mM, or 2 mM, respectively, and then treated with 100 ng/ml of a recombinant CPNE7 protein and cultured for 24 hours. After the culture was completed, the cultured cells were washed with PBS, and observed using an optical microscope. At this time, the hDPCs cultured without treating the recombinant CPNE7 protein (rCPNE7) were used as the control.
(§1) Cultured hDPC cells were seeded into 6-well plates at a density of 1×10^5 cells per well, cultured for 24 hours, and then treated with 1 mM hydrogen peroxide (H2O2) and treated with Selcopintide at concentrations of 1 μg/mL, 10 μg/mL, 100 μg/mL, and 500 μg/mL for 24 hours. Untreated hDPCs were used as the control.

[2] = tested on: hDPCs; assay: Reactive oxygen species level with DCFDA, confocal microscope; assay type: cell-based, human; conditions: 1 mM H2O2, 10 μg/mL Selcopintide, imaged for approximately one hour
Experimental: Cultured hDPCs were seeded into 35 mm culture dishes for a confocal microscope at a density of 1×10^5 cells, cultured for 24 hours, and then treated with 1 mM H2O2 and treated with 100 ng/mL of rCPNE7. Then, images were taken for approximately one hour using a confocal microscope.
Cultured hDPCs were seeded into 35 mm culture dishes for a confocal microscope at a density of 1×10^5 cells, cultured for 24 hours, and then treated with 1 mM H2O2 and treated with 10 μg/mL of Selcopintide. Thereafter, images were taken for approximately one hour using a confocal microscope.

[3] = tested on: hDPCs; assay: Immunofluorescence staining with γ-H2A.X (DNA damage marker); assay type: cell-based, human; conditions: 1 mM H2O2, 10 μg/mL Selcopintide, 24 hours, vs 1 mM H2O2 group
Experimental: Cultured hDPCs were seeded into 35 mm culture dishes for a confocal microscope at a density of 1×10^5 cells, cultured for 24 hours, and then treated with 1 mM H2O2 and treated with 100 ng/mL of rCPNE7. After 24 hours, the cells were fixed with 4% paraformaldehyde.
Immunofluorescence staining using a γ-H2A.X antibody was performed on the fixed cells to compare intensity.
Cultured hDPCs were seeded into 35 mm culture dishes for a confocal microscope at a density of 1×10^5 cells, cultured for 24 hours, and then treated with 1 mM H2O2 and treated with 10 μg/mL of Selcopintide. After 24 hours, the cells were fixed with 4% paraformaldehyde.

[4] = tested on: hDPC cells; assay: Amount of living cells by WST-8; assay type: cell-based, human; conditions: hDPCs, 1 mM H2O2, 1 μg/mL and 10 μg/mL Selcopintide, 24 hours; compared to H2O2-only-treated group
Experimental: as §1, with “96-well” for “6-well”, “3×10^3” for “1×10^5”
(§2) The WST-8 solution was added to each well and allowed to react for 1 hour, and then absorbance was measured at 450 nm using a microplate reader and compared.

[5] = tested on: endogenous antioxidant enzymes in hDPC cells; assay: mRNA levels of endogenous antioxidant enzymes by RT-PCR; assay type: cell-based, human; conditions: hDPCs, 1 mM H2O2, CPNE7 recombinant protein 100 ng/mL or Selcopintide 10 ug/mL
Experimental: Cultured hDPCs were seeded into 60 mm culture dishes at a density of 4×10^5 cells, cultured for 24 hours, and then treated with 1 mM H2O2 and treated with the CPNE7 recombinant protein (100 ng/mL) and Selcopintide (10 ug/mL). After 30 minutes and one hour, the mRNA levels of Sod1, 2, and 3, catalase, Gpx7, Hmox1, and Txmd1 were checked.

[6] = tested on: cardiomyocytes (H9C2 cell line); assay: Optical microscope observation of cardiomyocytes after H2O2 and Selcopintide; assay type: cell-based; conditions: H9C2, 1 mM H2O2, Selcopintide 1, 10, 100 and 500 μg/mL, 24 hours; compared to H2O2-only-treated group
Experimental: as §1, with “H9C2” for “hDPC”, “H9C2 cells” for “hDPCs”

[7] = tested on: H9C2 cells; assay: Amount of living cells by WST-8 in cardiomyocytes; assay type: cell-based; conditions: H9C2, 1 mM H2O2, 1, 10, 100 and 500 μg/mL Selcopintide, 24 hours; compared to H2O2-only-treated group
Experimental: as §1, with “H9C2” for “hDPC”, “96-well” for “6-well”, “3×10^3” for “1×10^5”, “H9C2 cells” for “hDPCs”
as §2

[8] = tested on: H9C2 cells; assay: B-gal staining, cell aging in cardiomyocytes; assay type: cell-based; conditions: H9C2, 1 mM H2O2, Selcopintide 1, 10, 100 and 500 μg/mL, 24 hours; compared to H2O2-only-treated group
Experimental: Cultured H9C2 was seeded into 6-well plates at a density of 1×10^5 cells, cultured for 24 hours, and then treated with 1 mM H2O2 and treated with 1 μg/mL, 10 μg/mL, 100 μg/mL, and 500 μg/mL of Selcopintide. After 24 hours, the cells were fixed with 4% paraformaldehyde.
Next, B-gal staining was performed on the fixed cells for 24 hours to compare the degree of cell aging. 24 hours after treatment with 1 mM H2O2, a large number of B-gal positive H9C2 cells were identified.

[9] = tested on: dermal fibroblast (CCD986SK) cells; assay: Optical microscope observation of dermal fibroblasts after H2O2 and Selcopintide; assay type: cell-based; conditions: 24 hours
Experimental: as §1, with “CCD986SK” for “hDPC”, “CCD986SK cells” for “hDPCs”

[10] = tested on: CCD986SK cells; assay: Amount of living cells by WST-8 in dermal fibroblasts; assay type: cell-based; conditions: 1 mM H2O2, 1, 10, 100 and 500 μg/mL Selcopintide, 24 hours, compared to H2O2-only-treated group
Experimental: as §1, with “CCD986SK” for “hDPC”, “96-well” for “6-well”, “3×10^3” for “1×10^5”, “CCD986SK cells” for “hDPCs”
The WST-8 solution was added to each well and allowed to react for one hour, and then absorbance was measured at 450 nm using a microplate reader and compared.

[11] = tested on: CCD986SK cells; assay: B-gal staining, cell aging in dermal fibroblasts; assay type: cell-based; conditions: 1 mM H2O2, Selcopintide 1, 10, 100 and 500 μg/mL, 24 hours, compared to H2O2-only-treated group
Experimental: Cultured CCD986SK cells were seeded into 6-well plates at a density of 1×10^5 cells, cultured for 24 hours, and then treated with 1 mM H2O2 and treated with 1 μg/mL, 10 μg/mL, 100 μg/mL, and 500 μg/mL of Selcopintide. After 24 hours, the cells were fixed with 4% paraformaldehyde.
B-gal staining was performed on the fixed cells for 24 hours to compare the degrees of cell aging. 24 hours after treatment with 1 mM H2O2, a large number of B-gal positive CCD986SK cells were identified.

[12] = 1 mM H2O2, Selcopintide 1, 10, 100 and 500 μg/mL, compared to H2O2-only-treated group

Sequence: KYKQKRRSYK (Novel peptide) [Selcopintide]
- cell viability (optical microscope) ([1]; 1 mM H2O2, 1 μg/mL and 10 μg/mL treatment groups): high
- cell viability (optical microscope) [1, 12]: higher
- amount of reactive oxygen species (DCFDA) [2]: decreased and became significant at approximately one hour
- accumulation of DNA damage (γ-H2A.X intensity) [3]: significantly reduced
- cell viability (WST-8, absorbance 450 nm) [4]: significantly higher
- mRNA of endogenous antioxidant enzymes Sod1, 2, and catalase ([5]; after 30 minutes, compared to H2O2-only-treated group): significantly increased
- mRNA of Sod1 and Gpx7, and Hmox1 and Txrnd1 ([5]; after one hour): significantly increased
- cell viability (optical microscope) [6]: higher
- cell viability (WST-8, absorbance 450 nm) [7]: significantly higher
- number of B-gal positive H9C2 cells [8]: significantly reduced
- significance of higher cell viability (optical microscope) ([9]; 1 mM H2O2, 1 μg/mL and 10 μg/mL of Selcopintide): highest
- cell viability (optical microscope) [9, 12]: higher
- cell viability (WST-8, absorbance 450 nm) [10]: significantly higher
- number of B-gal positive CCD986SK cells [11]: significantly reduced
